Values of other authors in patent US20060233724A1, “Medicinal composition for peridontal pocket administration containing bisphosphonic acid derivative or its salt as the active ingredient” (Toray Industries, Inc., priority 2002, published 2006).
Where two headings read alike, the source gives them in different places.

Tests used:
[1] = test system: involution of alveolar bone; conditions: hamster periodontal disease models
[2] = test system: involution of alveolar bone, attachment level; conditions: canine periodontal disease models, subcutaneous or oral administration
[3] = test system: destruction of alveolar bone; conditions: simian periodontal disease model, oral administration
[4] = test system: destruction of alveolar bone; conditions: canine periodontal disease model, oral administration
[5] = test system: experimental movement of molars; conditions: rat

O=P(O)(O)C(NC1CCCCCC1)P(=O)(O)O [Incadronate disodium, 1-(cycloheptylamino) methylidene-1,1-bisphosphonic acid]
involution of alveolar bone [1]: exhibits inhibiting action against involution of alveolar bone | attachment level [2]: action of improvement in attachment level | involution of alveolar bone [2]: action against involution of alveolar bone

NCCCC(O)(P(=O)(O)O)P(=O)(O)O [alendronate, 4-amino-1-hydroxybutylidene-1,1-bisphosphonic acid]
destruction of alveolar bone [3]: inhibited destruction of alveolar bone | destruction of alveolar bone [4]: inhibited destruction of alveolar bone

NCCC(O)(P(=O)(O)O)P(=O)(O)O [pamidronate]
effect in experimental movement of molars ([5]; local submucosal administration to the palate): effective

O=P(O)(O)C(O)(Cc1cccnc1)P(=O)(O)O [risedronate, 1-hydroxy-2-(3-pyridyl)ethylidene-1,1-bisphosphonic acid]
effect in experimental movement of molars ([5]; local administration to the vicinity of first molar): effective
